From the supplement of paper PMC10307832

Legend:
Assay in all cases: relative viability (nuclei count vs DMSO), 5 days (fraction); higher = more cells survive
XMD13-2 + Trametinib = compound: C1CC1C(=O)NC2=NNC3=C2C=CC(=C3)C4=CC(=CC=C4)C(=O)NC5CC5 [XMD13-2] + CC(=O)Nc1cccc(-n2c(=O)n(C3CC3)c(=O)c3c(Nc4ccc(I)cc4F)n(C)c(=O)c(C)c32)c1 [Trametinib] (partner 0.02 µM)
In short: (§1)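 Lung cancer cell lines in 1536-well plates got either a single drug or a fixed anchor-drug dose together with five library-drug doses (not always all listed) in √10 steps, by pin tool, on the day after seeding. Nuclei were counted after 5 days, and relative viability is the treated-to-vehicle ratio of nuclei counts. Values are medians of duplicate plates.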

XMD13-2 + Phenformin = compound: C1CC1C(=O)NC2=NNC3=C2C=CC(=C3)C4=CC(=CC=C4)C(=O)NC5CC5 [XMD13-2] + N=C(N)NC(=N)NCCc1ccccc1 [Phenformin] (partner 250 µM)
In short: as §1

XMD13-2 + Palbociclib = compound: C1CC1C(=O)NC2=NNC3=C2C=CC(=C3)C4=CC(=CC=C4)C(=O)NC5CC5 [XMD13-2] + CC(=O)c1c(C)c2cnc(Nc3ccc(N4CCNCC4)cn3)nc2n(C2CCCC2)c1=O [Palbociclib] (partner 0.5 µM)
In short: as §1

XMD13-2 + Pemetrexed = compound: C1CC1C(=O)NC2=NNC3=C2C=CC(=C3)C4=CC(=CC=C4)C(=O)NC5CC5 [XMD13-2] + Nc1nc2[nH]cc(CCc3ccc(C(=O)N[C@@H](CCC(=O)O)C(=O)O)cc3)c2c(=O)[nH]1 [Pemetrexed] (partner 0.2 µM)
In short: as §1

| Cell Line | relative viability (XMD13-2 + Trametinib; first compound 0.05 µM) | relative viability (XMD13-2 + Trametinib; first compound 0.1581 µM) | relative viability (XMD13-2 + Trametinib; first compound 0.5 µM) | relative viability (XMD13-2 + Trametinib; first compound 1.581 µM) | relative viability (XMD13-2 + Trametinib; first compound 5 µM) | relative viability (XMD13-2 + Phenformin; first compound 0.05 µM) | relative viability (XMD13-2 + Phenformin; first compound 0.1581 µM) | relative viability (XMD13-2 + Phenformin; first compound 0.5 µM) | relative viability (XMD13-2 + Phenformin; first compound 1.581 µM) | relative viability (XMD13-2 + Phenformin; first compound 5 µM) | relative viability (XMD13-2 + Palbociclib; first compound 0.05 µM) | relative viability (XMD13-2 + Palbociclib; first compound 0.1581 µM) | relative viability (XMD13-2 + Palbociclib; first compound 0.5 µM) | relative viability (XMD13-2 + Palbociclib; first compound 1.581 µM) | relative viability (XMD13-2 + Palbociclib; first compound 5 µM) | relative viability (XMD13-2 + Pemetrexed; first compound 0.05 µM) | relative viability (XMD13-2 + Pemetrexed; first compound 0.1581 µM) | relative viability (XMD13-2 + Pemetrexed; first compound 0.5 µM) | relative viability (XMD13-2 + Pemetrexed; first compound 1.581 µM) | relative viability (XMD13-2 + Pemetrexed; first compound 5 µM) |
| --- | --- | --- | --- | --- | --- | --- | --- | --- | --- | --- | --- | --- | --- | --- | --- | --- | --- | --- | --- | --- |
| NCI-H838 | 0.552 | 0.569 | 0.576 | 0.557 | 0.552 | 0.663 | 0.538 | 0.65 | 0.544 | 0.632 | 0.238 | 0.214 | 0.249 | 0.224 | 0.205 | 0.249 | 0.226 | 0.263 | 0.251 | 0.254 |
| NCI-H1792 | 0.549 | 0.454 | 0.475 | 0.509 | 0.507 | 0.29 | 0.306 | 0.259 | 0.324 | 0.352 | 0.773 | 0.691 | 0.686 | 0.765 | 0.687 | 1.16 | 0.694 | 0.922 | 0.75 | 1.14 |
| H3255 | 0.749 | 0.66 | 0.556 |  | 0.475 | 0.21 | 0.378 | 0.409 | 0.364 | 0.358 | 0.316 | 0.291 | 0.309 | 0.334 | 0.306 | 0.618 | 0.546 | 0.579 | 0.611 | 0.625 |
| EPLC-272H | 0.289 | 0.311 | 0.301 | 0.257 | 0.271 | 0.322 | 0.262 | 0.344 | 0.368 | 0.266 | 0.314 | 0.344 | 0.329 | 0.279 | 0.317 | 0.345 | 0.31 | 0.247 | 0.254 | 0.168 |
| NCI-H647 | 0.621 | 0.4 | 0.587 | 0.431 | 0.305 | 0.697 | 0.605 | 0.678 | 0.659 | 0.435 | 0.491 | 0.384 | 0.408 | 0.5 | 0.225 | 0.173 | 0.168 | 0.179 | 0.164 | 0.134 |
| LXF-289 | 0.672 | 0.73 | 0.731 | 0.642 | 0.731 | 0.538 | 0.536 | 0.561 | 0.551 | 0.527 | 0.627 | 0.64 | 0.535 | 0.634 | 0.612 | 0.92 | 0.952 | 0.892 | 0.964 | 0.952 |
| NCI-H1650 | 0.852 | 0.663 | 0.65 | 0.526 | 0.695 | 0.634 | 0.476 | 0.552 | 0.432 | 0.558 | 0.29 | 0.399 | 0.385 | 0.332 | 0.312 | 0.351 | 0.388 | 0.348 | 0.418 | 0.395 |
| NCI-H1755 | 0.821 | 0.714 | 0.722 | 0.754 | 0.697 | 0.643 | 0.666 | 0.596 | 0.642 | 0.677 | 0.468 | 0.444 | 0.457 | 0.474 | 0.409 | 0.418 | 0.455 | 0.473 | 0.456 | 0.396 |
| HCC-15 | 0.353 | 0.351 | 0.428 | 0.363 | 0.344 | 0.609 | 0.523 | 0.546 | 0.456 | 0.407 | 0.798 | 0.684 | 0.803 | 0.709 | 0.594 | 0.237 | 0.204 | 0.218 | 0.224 | 0.214 |
| EMC-BAC-2 | 0.986 | 0.893 | 0.824 |  | 0.805 | 0.534 | 0.52 | 0.586 | 0.511 | 0.561 | 0.558 | 0.519 | 0.536 | 0.497 | 0.47 | 0.42 | 0.451 | 0.431 | 0.457 | 0.494 |
| NCI-H1734 | 0.783 | 0.653 | 0.753 | 0.662 | 0.627 | 0.463 | 0.354 | 0.391 | 0.386 | 0.363 | 0.413 | 0.332 | 0.361 | 0.358 | 0.297 | 0.41 | 0.422 | 0.398 | 0.412 | 0.386 |
| NCI-H1395 | 1.05 | 1.01 | 1.06 | 0.966 | 1.04 | 0.449 | 0.446 | 0.435 | 0.429 | 0.45 | 0.757 | 0.634 | 0.631 | 0.656 | 0.715 | 0.93 | 0.998 | 0.879 | 0.876 | 0.911 |
| HOP-62 | 0.397 | 0.4 | 0.443 | 0.426 | 0.407 | 0.671 | 0.687 | 0.837 | 0.595 | 0.553 | 0.464 | 0.485 | 0.448 | 0.413 | 0.348 | 0.264 | 0.339 | 0.299 | 0.285 | 0.278 |
| LK-2 | 1.1 | 0.785 | 0.779 | 0.583 | 0.571 | 0.607 | 0.496 | 0.455 | 0.334 | 0.392 | 0.666 | 0.557 | 0.698 | 0.776 | 0.593 | 0.297 | 0.284 | 0.266 | 0.291 | 0.393 |
| SW 1573 | 0.585 | 0.53 | 0.674 | 0.533 | 0.536 | 0.443 | 0.385 | 0.384 | 0.26 | 0.24 | 0.442 | 0.366 | 0.717 | 0.371 | 0.287 | 0.831 | 0.847 | 0.788 | 0.79 | 0.814 |
| SK-LU-1 | 0.513 | 0.474 | 0.573 | 0.56 | 0.511 | 0.609 | 0.528 | 0.594 | 0.592 | 0.525 | 0.42 | 0.393 | 0.38 | 0.378 | 0.319 | 0.997 | 0.964 | 1.01 | 0.977 | 0.948 |
